# Laboratory results taken from patent publication US20250296953A1, “3,4-THIAZOLO-STEROIDS AND METHODS OF MAKING AND USING THE SAME” (Arkansas State University - Jonesboro, priority 2018, published 2025).
# Where two headings read alike, the source gives them in different places.
# What was measured:
# [1] = test system: NCI-H522 (NSCLC); assay: NCI 60 one dose screen; type: cell-based, human; conditions: Non-small Cell Lung Cancer
# [2] = test system: HCT-15 (Colon Cancer); assay: NCI 60 one dose screen; type: cell-based, human
# [3] = test system: SF-295; assay: NCI 60 one dose screen; type: cell-based, human; conditions: one dose; CNS Cancer; SF-295
# [4] = test system: 60 different human tumor cell lines; conditions: for GI50 / TGI: five dose
# [5] = A549/ATCC (Non-small Cell Lung Cancer)
# [6] = EKVX (Non-small Cell Lung Cancer)
# [7] = HOP-62 (Non-small Cell Lung Cancer)
# [8] = HOP-92 (Non-small Cell Lung Cancer)
# [9] = NCI-H23 (Non-small Cell Lung Cancer)
# [10] = NCI-H226 (Non-small Cell Lung Cancer)
# [11] = NCI-H322M (Non-small Cell Lung Cancer)
# [12] = NCI-H460 (Non-small Cell Lung Cancer)
# [13] = NCI-H522 (Non-small Cell Lung Cancer)
smiles,measurement,setting,value
C[C@]12CCc3nc(Nc4ccc(O)cc4)sc3C1=CC[C@@H]1[C@@H]2CC[C@]2(C)C(=O)CC[C@@H]12 [IIa.35],Growth Percent,[1],−55.25%
same,Growth Percent,[2],−67.96%
same,Growth Percent,[3],52.47%
same,CC50,[4],> 100000 nM
same,GI50,[4]; 786-0 (Renal Cancer),1800 nM
same,TGI,[4]; 786-0 (Renal Cancer),3.82
same,GI50,[4]; A498 (Renal Cancer),14200 nM
same,TGI,[4]; A498 (Renal Cancer),8.06E−5
same,GI50,[4]; [5],4420 nM
same,TGI,[4]; [5],>1.00E−4
same,GI50,[4]; ACHN (Renal Cancer),2920 nM
same,TGI,[4]; ACHN (Renal Cancer),9.29E−6
same,GI50,[4]; BT-549 (Breast Cancer),3130 nM
same,TGI,[4]; BT-549 (Breast Cancer),>1.00E−4
same,GI50,[4]; CAKI-1 (Renal Cancer),1930 nM
same,TGI,[4]; CAKI-1 (Renal Cancer),3.97E−6
same,GI50,[4]; CCRF-CEM (Leukemia),2470 nM
same,TGI,[4]; CCRF-CEM (Leukemia),>1.00E−4
same,GI50,[4]; COLO 205 (Colon Cancer),2000 nM
same,TGI,[4]; COLO 205 (Colon Cancer),3.90E−6
same,GI50,[4]; DU-145 (Prostate Cancer),1660 nM
same,TGI,[4]; DU-145 (Prostate Cancer),3.14E−6
same,GI50,[4]; [6],10400 nM
same,TGI,[4]; [6],4.00E−4
same,GI50,[4]; HCC-2998 (Colon Cancer),4110 nM
same,TGI,[4]; HCC-2998 (Colon Cancer),>1.00E−4
same,GI50,[4]; HCT-15 (Colon Cancer),1660 nM
same,TGI,[4]; HCT-15 (Colon Cancer),4.40E−6
same,GI50,[4]; HCT-116 (Colon Cancer),1900 nM
same,GI50,[4]; HL-60(TB) (Leukemia),2570 nM
same,TGI,[4]; HL-60(TB) (Leukemia),7.27E−6
same,GI50,[4]; [7],3280 nM
same,TGI,[4]; [7],1.26E−5
same,GI50,[4]; [8],2390 nM
same,TGI,[4]; [8],5.65E−6
same,GI50,[4]; HS 578T (Breast Cancer),3380 nM
same,TGI,[4]; HS 578T (Breast Cancer),>1.00E−4
same,GI50,[4]; HT29 (Colon Cancer),2130 nM
same,TGI,[4]; HT29 (Colon Cancer),5.59E−6
same,GI50,[4]; IGROV1 (Ovarian Cancer),1990 nM
same,TGI,[4]; IGROV1 (Ovarian Cancer),5.02E−6
same,GI50,[4]; K-562 (Leukemia),2960 nM
same,TGI,[4]; K-562 (Leukemia),>1.00E−4
same,GI50,[4]; KM12 (Colon Cancer),1930 nM
same,TGI,[4]; KM12 (Colon Cancer),4.06E−6
same,GI50,[4]; LOX IMVI (Melanoma),1580 nM
same,TGI,[4]; LOX IMVI (Melanoma),3.04E−6
same,GI50,[4]; M14 (Melanoma),2680 nM
same,GI50,[4]; MALME-3M (Melanoma),1810 nM
same,TGI,[4]; MALME-3M (Melanoma),4.03E−6
same,GI50,[4]; MCF7 (Breast Cancer),1660 nM
same,TGI,[4]; MCF7 (Breast Cancer),4.26E−6
same,GI50,[4]; MDA-MB-231/ATCC (Breast Cancer),3220 nM
same,GI50,[4]; MDA-MB-435 (Melanoma),2080 nM
same,TGI,[4]; MDA-MB-435 (Melanoma),5.32E−6
same,GI50,[4]; MDA-MB-468 (Breast Cancer),2170 nM
same,TGI,[4]; MDA-MB-468 (Breast Cancer),5.80E−6
same,GI50,[4]; MOLT-4 (Leukemia),2380 nM
same,TGI,[4]; MOLT-4 (Leukemia),>1.00E−4
same,GI50,[4]; [9],3960 nM
same,TGI,[4]; [9],>1.00E−4
same,GI50,[4]; [10],2860 nM
same,TGI,[4]; [10],8.52E−6
same,GI50,[4]; [11],6400 nM
same,TGI,[4]; [11],>1.00E−4
same,GI50,[4]; [12],3010 nM
same,TGI,[4]; [12],1.05E−5
same,GI50,[4]; [13],1420 nM
same,TGI,[4]; [13],2.96E−6
same,GI50,[4]; NCI/ADR-RES (Ovarian Cancer),3270 nM
same,TGI,[4]; NCI/ADR-RES (Ovarian Cancer),>1.00E−4
same,GI50,[4]; OVCAR-3 (Ovarian Cancer),1710 nM
same,TGI,[4]; OVCAR-3 (Ovarian Cancer),3.38E−6
same,GI50,[4]; OVCAR-4 (Ovarian Cancer),2030 nM
same,GI50,[4]; OVCAR-5 (Ovarian Cancer),3910 nM
same,TGI,[4]; OVCAR-5 (Ovarian Cancer),>1.00E−4
same,GI50,[4]; OVCAR-8 (Ovarian Cancer),3220 nM
same,TGI,[4]; OVCAR-8 (Ovarian Cancer),>1.00E−4
same,GI50,[4]; PC-3 (Prostate Cancer),2490 nM
same,TGI,[4]; PC-3 (Prostate Cancer),8.15E−6
same,GI50,[4]; RXF 393 (Renal Cancer),1780 nM
same,TGI,[4]; RXF 393 (Renal Cancer),4.14E−6
same,GI50,[4]; SF-268 (CNS Cancer),3370 nM
same,TGI,[4]; SF-268 (CNS Cancer),4.00E−4
